Data on 34 compounds can be found in patent EP1972623A1, “Arylpyridazines as fungicides” (Bayer CropScience AG, priority 2007, dated 2008).

A short description of this data set: logP determination via HPLC retention times (calibration with unbranched alkan-2-ones). In kind it is physicochemical. The settings on record: from retention times, linear interpolation between alkan-2-ones. An excerpt:
Die Kalibrierung wurde jeweils mit unverzweigten Alkan-2-onn (3 bis 16 Kohlenstoff Atome) mit bekannten IogP Werten durchgeführt (Bestimmung von den logP Werten über die Retentionszeiten durch lineare Interpolation zwischen zwei bestimmten Alkazionen). Die Lambda-max Werte wurden jeweils in den Maxima der Chromatographie-Signale durch UV Spektren zwischen 190nm und 400nm bestimmt.

For orientation: logP means the decadic logarithm of the partition coefficient of the neutral form, usually between octanol and water. Higher therefore signals higher lipophilicity. “3-(2-Methyl)-4-(2-thienyl)-5-hydroxy-5-methylfuran-2(5H)-on” came in with a lipophilicity (logP) of 2.59.

What is called chromatographic logP is lipophilicity estimated from chromatographic retention. Low values mean a more hydrophilic compound, high ones a more lipophilic compound. In turn, `CC1(O)OC(=O)C(c2cc(F)c(F)cc2F)=C1c1cccs1` (stereo not shown) [3-(2,4,5-Trifluorphonyl)-4-(2-thienyl)-5-hydroxy-5-methylfuran-2(5H)-on] came in with a chromatographic logP of 2.57.

With `Cc1ccc(C2=C(c3cc(F)c(F)cc3F)C(=O)OC2(C)O)nc1C` (stereo not shown) [3-(2,4,5-Trilluorphenyl)4-(5,6-Dimethyl-2-pyridyl)-5-hydroxy-5-methylfuran-2(5H)-on], the chromatographic logP came out at 2.89.

The compound `CC1(O)OC(=O)C(c2c(Cl)cccc2Cl)=C1c1cccs1` (stereo not shown) [3-(2,6-Dichlorphenyl)-4-(2-thienyl)-5-hydroxy-5-methylfuran-2(5H)-on] showed a chromatographic logP of 2.57.

Regarding `Cc1ccc(C2=C(c3c(Cl)cccc3Cl)C(=O)OC2(C)O)nc1C` (stereo not shown) [3-(2,6-Dichlorphenyl)-4-(5,6-Dimethyl-2-pyridyl)5-hydroxy-5-methylfuran-2(5H)-on], the chromatographic logP was found to be 3.14.

Consider `CC1(O)OC(=O)C(c2c(F)cccc2F)=C1c1cccs1` (stereo not shown) [3-(2,6-Difluorphenyl)4-(2-thienyl)-5-hydroxy-5-methylfuran-2(5H)-on], for which the chromatographic logP amounted to 2.39.

`CC1(O)OC(=O)C(c2c(F)cccc2F)=C1c1ccncc1` (stereo not shown) [3-(2,6-Difluorphenyl)-4-(4-pyridyl)-5-hydroxy-5-methylfuran-2(5H)-on] showed a chromatographic logP of 1.4.

For the compound `Cc1ccc(C2=C(c3c(F)cccc3F)C(=O)OC2(C)O)nc1C` (stereo not shown) [3-(2,6-Difluorphenyl)-4-(5,6-Dimethyl-2-pyridyl)-5-hydroxy-5-methylfuran-2(5H)-on], the chromatographic logP was 2.65.

Compound `CC1(O)OC(=O)C(c2c(F)cccc2F)=C1c1nccs1` (stereo not shown) [3-(2,6-Difluorphonyl)-4-(2-thiazolyl)-5-hydroxy-5-methylfuran-2(5H)-on] displayed a chromatographic logP of 1.92.

The compound `CC1(O)OC(=O)C(c2ccc(F)cc2Br)=C1c1cccs1` (stereo not shown) [3-(2-Brom-4-fluorphenyl)-4-(2-thienyl)-5-hydroxy-5-methylfuran-2(5H)-on] came in with a chromatographic logP of 2.64.

`CC1(O)OC(=O)C(c2ccc(F)cc2Br)=C1c1ccc(Cl)s1` (stereo not shown) [3-(2-Brom-4-fluorphenyl)-4-(5-chlor-2-thienyl)-5-hydroxy-5-methylfuran-2(5H)-on] registered a chromatographic logP of 3.3.

Take `CC1(O)OC(=O)C(c2ccc(F)cc2Cl)=C1c1cccs1` (stereo not shown) [3-(2-Chlor-4-fluorphenyl)-4-(2-thienyl)-5-hydroxy-5-methylfuran-2(5H)-on]: the chromatographic logP stood at 2.68.

`CC1(O)OC(=O)C(c2ccc(F)cc2Cl)=C1c1ccc(Cl)s1` (stereo not shown) [3-(2-Chlor-4-fluorphenyl)-4-(5-chlor-2-thienyl)-5-hydroxy-5-methylfuran-2(5H)-on] had a chromatographic logP of 3.24.

In the case of `CC1(O)OC(=O)C(c2c(F)cccc2Cl)=C1c1cccs1` (stereo not shown) [3-(2-Chlor-6-fluorphenyl)-4-(2-thienyl)-5-hydroxy-5-methylfuran-2(5H)-on], the chromatographic logP was 2.61.

Regarding `CC1(O)OC(=O)C(c2c(F)cccc2Cl)=C1c1ccc(Cl)s1` (stereo not shown) [3-(2-Chlor-6-fluorphenyl)-4-(5-chlor-2-thienyl)-5-hydroxy-5-methylfuran-2(5H)-on], the chromatographic logP is 3.13.

`CC1(O)OC(=O)C(c2ccccc2Cl)=C1c1cccs1` (stereo not shown) [3-(2-Chlorphenyl)-4-(2-thienyl)-5-hydroxy-5-methylfuran-2(5H)-on] had a chromatographic logP of 2.44.

On to `CC1(O)OC(=O)C(c2ccccc2Cl)=C1c1ccc(Cl)s1` (stereo not shown) [3-(2-Chlorphenyl)-4-(5-chlor-2-thienyl)-5-hydroxy-5-methylfuran-2(5H)-on], for which the chromatographic logP worked out at 3.91.

In the case of `CC1(O)OC(=O)C(c2ccccc2F)=C1c1cccs1` (stereo not shown) [3-(2-Fluorphenyl)-4-(2-thienyl)-5-hydroxy-5-methylfuran-2(5H)-on], the chromatographic logP is 2.29.

In the case of `CC1(O)OC(=O)C(c2cccc(Cl)c2)=C1c1cccs1` (stereo not shown) [3-(3-Chlorphenyl)-4-(2-thienyl)-5-hydroxy-5-methylfuran-2(5H)-on], the chromatographic logP was 2.73.

With `CC1(O)OC(=O)C(c2cccc(Cl)c2)=C1c1ccc(Cl)s1` (stereo not shown) [3-(3-Chlorphenyl)-4-(5-chlor-2-thienyl)-5-hydroxy-5-metylfuran-2(5H)-on], the chromatographic logP was 3.38.

Compound `Cc1n[nH]c(=O)c(-c2c(Cl)cccc2Cl)c1-c1cccs1` [4-(2,6-Dichlorphenyl)-5-(2-thienyl)-6-methylpyridazin-3(2H)-on] showed a chromatographic logP of 2.43.

`Cc1ccc(C2=C(c3c(F)cccc3F)C(C)(O)OC2=O)o1` (stereo not shown) [4-(2,6-Difluorphenyl)-3-(5-Methyl-2-furyl)-5-hydroxy-5-methylfuran-2(5H)-on] returned a log partition coefficient (logP) of 2.35.

As to `Cc1n[nH]c(=O)c(-c2ccc(F)cc2Br)c1-c1ccc(Cl)s1` [4-(2-Brom-4-fluorphenyl)-5-(5-chlor-2-thienyl)-6-methylpyridazin-3(2H)-on], the chromatographic logP came out at 3.03.

`Cc1n[nH]c(=O)c(-c2ccc(F)cc2Cl)c1-c1ccc(Cl)s1` [4-(2-Chlor-4-fluorphenyl)-5-(5-chlor-2-thienyl)-6-methylpyridazin-3(2H)-on]: the chromatographic logP is 2.97.

Regarding `Cc1n[nH]c(=O)c(-c2ccccc2Cl)c1-c1cccs1` [4-(2-Chlorphenyl)-5-(2-thienyl)-6-methylpyridazin-3(2H)-on], the chromatographic logP is 2.19.

Consider `Cc1n[nH]c(=O)c(-c2ccccc2Cl)c1-c1ccc(Cl)s1` [4-(2-Chlorphenyl)-5-(5-chlor-2-thienyl)-6-methylpyridazin-3(2H)-on], for which the chromatographic logP was 2.83.

`Cc1n[nH]c(=O)c(-c2ccccc2F)c1-c1cccs1` [4-(2-Fluorphonyl)-5-(2-thienyl)-6-methylpyridazin-3(2H)-on] gave a chromatographic logP of 2.06.

The compound `Cc1n[nH]c(=O)c(-c2cccc(Cl)c2)c1-c1ccc(Cl)s1` [4-(3-Chlorphenyl)-5-(5-chlor-2-thienyl)-6-methylpyridazin-3(2H)-on] showed a chromatographic logP of 3.04.

For the compound `CC1(O)OC(=O)C(c2cccc3c2OC(F)(F)O3)=C1c1ccc(Cl)s1` (stereo not shown) [4-(5-Chlor-2-thienyl)-3-(2,2-difluor-1,3-benzodioxol-4-yl)-5-hydroxy-5-methylfuran-2(5H)-on], the chromatographic logP amounted to 3.41.

Regarding `CC1(O)OC(=O)C(c2c(Cl)cccc2Cl)=C1c1ccc(Cl)s1` (stereo not shown) [4-(5-Chlor-2-thienyl)-3-(2,6-dichlorphenyl)-5-hydroxy-5-methylfuran-2(5H)-on], the chromatographic logP came out at 3.26.

Take `CC1(O)OC(=O)C(c2c(F)cccc2F)=C1c1ccc(Cl)s1` (stereo not shown) [4-(5-Chlor-2-thienyl)-3-(2,6-difluorphonyl)-5-hydroxy-5-methylfuran-2(5H)-on]: the chromatographic logP amounted to 2.94.

As to `CC1(O)OC(=O)C(c2ccccc2F)=C1c1ccc(Cl)s1` (stereo not shown) [4-(5-Chlor-2-thienyl)-3-(2-fluorphenyl)-5-hydroxy-5-methylfuran-2(5H)-on], the chromatographic logP was found to be 2.93.

As to `CC1(O)OC(=O)C(c2cc(F)c(F)cc2F)=C1c1ccc(Cl)s1` (stereo not shown) [4.(5-Chlor-2-thienyl)-3-(2,4,5-trifluorphenyl)-5-hydroxy-5-methylfuran-2(5H)-on], the chromatographic logP was determined as 3.17.

`Cc1n[nH]c(=O)c(-c2c(F)cccc2F)c1-c1nccs1` [5-(2-Thiazolyl)-4-(2,6-difluorphenyl)-6-methylpyridazin-3(2H)-on] yielded a chromatographic logP of 1.57.
